# In patent US10689345B2, “1-cyano-pyrrolidine compounds as USP30 inhibitors” (Mission Therapeutics Limited, priority 2015, dated 2020):
# Biological target: USP30 (Homo sapiens (Human), UniProt Q70CQ3)
# Assay: USP30 biochemical FP (fluorescence polarisation) IC50 assay
# Conditions: USP30 biochemical FP or FI IC50 assay (table does not say which per compound); read-out: IC50 range
# Description: In Vitro USP30 FP Inhibition Assay
# USP30 Biochemical IC50 Assay
# Dilution plates were prepared at 21 times the final concentration (2100 μM for a final concentration of 100 μM) in 50% DMSO in a 96-well polypropylene V-bottom plate (Greiner #651201). A typical 8-point dilution series would be 100, 30, 10, 3, 1, 0.3, 0.1, 0.03 μM final. Reactions were performed in duplicate in black 384 well plates (small volume, Greiner 784076) in a final reaction volume of 21 μl. Either 1 μl of 50% DMSO or diluted compound was added to the plate. USP30 was diluted in reaction buffer (40 mM Tris, pH 7.5, 0.005% Tween 20, 0.5 mg/ml BSA, 5 mM beta-mercaptoethanol) to the equivalent of 0.05 μl/well and 10 μl of diluted USP30 was added to the compound. Enzyme and compound were incubated for 30 min at room temp. Reactions were initiated by the addition of 50 nM of TAMRA labelled peptide linked to ubiquitin via an iso-peptide bond as fluorescence polarisation substrate. Reactions were read immediately after addition of substrate and following a 2 hr incubation at room temperature. Readings were performed on a Pherastar Plus (BMG Labtech). λ Excitation 540 nm; λ Emission 590 nm.
# Chain of USP30 (Q70CQ3 57-517): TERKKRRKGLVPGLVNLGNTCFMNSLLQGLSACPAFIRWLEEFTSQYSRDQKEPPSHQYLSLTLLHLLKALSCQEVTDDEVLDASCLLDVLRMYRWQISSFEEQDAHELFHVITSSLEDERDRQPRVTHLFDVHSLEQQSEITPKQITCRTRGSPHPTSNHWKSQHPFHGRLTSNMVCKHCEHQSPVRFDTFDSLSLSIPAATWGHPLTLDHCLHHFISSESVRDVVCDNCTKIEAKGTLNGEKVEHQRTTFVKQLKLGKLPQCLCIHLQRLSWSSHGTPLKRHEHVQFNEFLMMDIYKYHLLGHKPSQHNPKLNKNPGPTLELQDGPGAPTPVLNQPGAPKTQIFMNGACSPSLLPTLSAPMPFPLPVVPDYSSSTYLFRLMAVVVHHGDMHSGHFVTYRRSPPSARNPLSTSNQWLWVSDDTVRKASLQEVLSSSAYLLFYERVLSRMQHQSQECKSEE
row,IC50 [nM],Compound
1,100 to 1000,"N#CN1C[C@H](NC(=O)c2ccc(-c3ccccc3)cc2)[C@@H](F)C1 (relative stereo) [Example 176, N-((trans)-1-cyano-4-fluoropyrrolidin-3-yl)-[1,1′-biphenyl]-4-carboxamide]"
2,100 to 1000,"N#CN1CC[C@@H](NC(=O)c2cc(F)c(N3CCOCC3)cc2F)C1 [Example 144, (R)-N-(1-cyanopyrrolidin-3-yl)-2,5-difluoro-4-morpholinobenzamide]"
3,< 100,"N#CN1CC[C@@H](NC(=O)c2cc(-c3ccc(Cl)cc3)no2)C1 [Example 218, (R)-3-(4-chlorophenyl)-N-(1-cyanopyrrolidin-3-yl)isoxazole-5-carboxamide]"
4,< 100,"Cc1noc(C)c1-c1ccc2cc(C(=O)N(C)[C@@H]3CCN(C#N)C3)[nH]c2c1 [Example 262, (R)-N-(1-cyanopyrrolidin-3-yl)-6-(3,5-dimethylisoxazol-4-yl)-N-methyl-1H-indole-2-carboxamide]"

# More lines, now with the values behind:
row,Compound,IC50 [nM]
1,"Cn1cc(-c2ccc(C(=O)N[C@@H]3CCN(C#N)C3)c(F)c2F)cn1 [Example 131, (R)-N-(1-cyanopyrrolidin-3-yl)-2,3-difluoro-4-(1-methyl-1H-pyrazol-4-yl)benzamide]",< 100
2,"Cn1cc(-c2ccc3nc(C(=O)N[C@@H]4CCN(C#N)C4)c(F)n3c2)cn1 [Example 168, (R)-N-(1-cyanopyrrolidin-3-yl)-3-fluoro-6-(1-methyl-1H-pyrazol-4-yl)imidazo [1,2-a]pyridine-2-carboxamide]",100 to 1000
3,"N#CN1CCC(NC(=O)Nc2ccc(-c3ccccc3)cc2)C1 (stereo not drawn) [Example 254, 1-([1,1′-biphenyl]-4-yl)-3-(1-cyanopyrrolidin-3-yl)urea]",< 100
4,(R)-N-(1-cyanopyrrolidin- 3-yl)-2-fluoro-3-(1-methyl- 1H-pyrazol-yl)benzamide [Example 104],100 to 1000
5,"N-((R)-1-cyanopyrrolidin- 3-yl)-((2S,6R)-2,6- dimethylmorpholino)-5- fluoroisonicotinamide [Example 140]",100 to 1000
